In patent US20130338106A1, “COMPOUNDS INHIBITING LEUCINE-RICH REPEAT KINASE ENZYME ACTIVITY” (priority 2011, published 2013):

Columns and labels:
Type in all cases: biochemical
Conditions in all cases: tested at 10 uM, read-out: percent inhibition of the kinase activity
DDR2 = molecular target: T1, DDR2 (Homo sapiens, UniProt Q16832); assay: ProfilerPro Kinase Selectivity, DDR2
T1 construct: purchased Caliper LifeSciences
Description: (§1) Kinome selectivity profiling was performed using two example compounds according to the manufacturer's instructions using Caliper LifeSciences' ProfilerPro Kinase Selectivity Assay Kits. Compounds prepared in Examples 1 and 7 were tested at 10 uM and data were recorded using the Caliper LabChip® EZ Reader™. Each compounds' percent inhibition of the kinase activity measured in this manner is reported in the following lists.

LYN = molecular target: T2, LYN (Homo sapiens, UniProt P07948); assay: ProfilerPro Kinase Selectivity, LYN
T2 construct: purchased Caliper LifeSciences
Description: as §1

GSK3A = molecular target: T3, GSK3A (Homo sapiens, UniProt P49840); assay: ProfilerPro Kinase Selectivity, GSK3A
T3 construct: purchased Caliper LifeSciences
Description: as §1

TYRO3 = molecular target: T4, TYRO3 (Homo sapiens, UniProt Q06418); assay: ProfilerPro Kinase Selectivity, TYRO3
T4 construct: purchased Caliper LifeSciences
Description: as §1

CAMK2G = molecular target: T5, CAMK2G (Homo sapiens, UniProt Q13555); assay: ProfilerPro Kinase Selectivity, CAMK2G
T5 construct: purchased Caliper LifeSciences
Description: as §1

ABL T315I = molecular target: T6, ABL T315I (Homo sapiens, UniProt P00519, T315I); assay: ProfilerPro Kinase Selectivity, ABL T315I
T6 construct: purchased Caliper LifeSciences
Description: as §1

ABL1 Y253F = molecular target: T7, ABL1 Y253F (Homo sapiens, UniProt P00519, Y253F); assay: ProfilerPro Kinase Selectivity, ABL1 Y253F
T7 construct: purchased Caliper LifeSciences
Description: as §1

PAK4 = molecular target: T8, PAK4 (Homo sapiens, UniProt O96013); assay: ProfilerPro Kinase Selectivity, PAK4
T8 construct: purchased Caliper LifeSciences
Description: as §1

CAMK1D = molecular target: T9, CAMK1D (Homo sapiens, UniProt Q8IU85); assay: ProfilerPro Kinase Selectivity, CAMK1D
T9 construct: purchased Caliper LifeSciences
Description: as §1

PRKCA = molecular target: T10, PRKCA (Homo sapiens, UniProt P17252); assay: ProfilerPro Kinase Selectivity, PRKCA
T10 construct: purchased Caliper LifeSciences
Description: as §1

PKCI = molecular target: T11, PKCI (Homo sapiens, UniProt P41743); assay: ProfilerPro Kinase Selectivity, PKCI
T11 construct: purchased Caliper LifeSciences
Description: as §1

P38B2 = molecular target: T12, P38B2 (Homo sapiens, UniProt Q15759); assay: ProfilerPro Kinase Selectivity, P38B2
T12 construct: purchased Caliper LifeSciences
Description: as §1

PDGFRA = molecular target: T13, PDGFRA (Homo sapiens, UniProt P16234); assay: ProfilerPro Kinase Selectivity, PDGFRA
T13 construct: purchased Caliper LifeSciences
Description: as §1

GSK3B = molecular target: T14, GSK3B (Homo sapiens, UniProt P49841); assay: ProfilerPro Kinase Selectivity, GSK3B
T14 construct: purchased Caliper LifeSciences
Description: as §1

MET M1250T = molecular target: T15, MET M1250T (Homo sapiens, UniProt P08581, M1250T); assay: ProfilerPro Kinase Selectivity, MET M1250T
T15 construct: purchased Caliper LifeSciences
Description: as §1

P38A/SAPK2A T106M = molecular target: T16, P38A/SAPK2A T106M (Homo sapiens, UniProt Q16539, T106M); assay: ProfilerPro Kinase Selectivity, P38A/SAPK2A T106M
T16 construct: purchased Caliper LifeSciences
T16 sequence (Q16539 2-360 T106M): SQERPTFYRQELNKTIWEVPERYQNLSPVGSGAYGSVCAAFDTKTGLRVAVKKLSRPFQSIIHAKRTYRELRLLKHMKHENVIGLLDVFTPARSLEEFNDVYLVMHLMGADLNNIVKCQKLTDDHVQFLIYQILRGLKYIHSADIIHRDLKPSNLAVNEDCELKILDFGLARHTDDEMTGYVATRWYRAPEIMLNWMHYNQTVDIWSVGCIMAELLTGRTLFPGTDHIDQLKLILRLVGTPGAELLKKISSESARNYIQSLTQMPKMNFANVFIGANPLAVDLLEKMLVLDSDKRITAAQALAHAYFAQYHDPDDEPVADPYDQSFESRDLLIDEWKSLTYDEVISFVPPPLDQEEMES
Description: as §1

FGFR1 V561M = molecular target: T17, FGFR1 V561M (Homo sapiens, UniProt P11362, V561M); assay: ProfilerPro Kinase Selectivity, FGFR1 V561M
T17 construct: purchased Caliper LifeSciences
T17 sequence (P11362 22-822 V561M): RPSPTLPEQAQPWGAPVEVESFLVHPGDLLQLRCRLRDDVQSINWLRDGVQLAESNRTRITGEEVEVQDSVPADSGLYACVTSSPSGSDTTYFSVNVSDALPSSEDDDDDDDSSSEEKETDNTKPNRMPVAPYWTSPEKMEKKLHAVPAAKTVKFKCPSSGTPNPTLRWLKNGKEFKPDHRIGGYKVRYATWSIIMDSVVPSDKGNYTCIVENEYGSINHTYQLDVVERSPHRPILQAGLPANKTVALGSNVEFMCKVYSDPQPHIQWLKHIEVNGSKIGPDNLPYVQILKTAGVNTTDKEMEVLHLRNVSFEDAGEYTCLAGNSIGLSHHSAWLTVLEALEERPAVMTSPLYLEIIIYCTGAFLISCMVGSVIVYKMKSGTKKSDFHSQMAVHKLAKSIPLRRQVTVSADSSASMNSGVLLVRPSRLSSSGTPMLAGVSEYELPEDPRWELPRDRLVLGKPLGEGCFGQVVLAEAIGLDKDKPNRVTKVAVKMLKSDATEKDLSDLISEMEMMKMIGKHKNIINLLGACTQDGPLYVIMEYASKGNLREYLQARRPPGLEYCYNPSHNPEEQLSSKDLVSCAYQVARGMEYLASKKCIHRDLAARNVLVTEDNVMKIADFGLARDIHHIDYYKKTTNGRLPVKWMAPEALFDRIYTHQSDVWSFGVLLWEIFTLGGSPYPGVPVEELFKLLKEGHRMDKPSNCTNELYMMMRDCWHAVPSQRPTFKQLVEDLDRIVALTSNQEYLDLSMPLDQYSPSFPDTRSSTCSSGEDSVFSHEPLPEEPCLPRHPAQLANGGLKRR
Description: as §1

PIM2 = molecular target: T18, PIM2 (Homo sapiens, UniProt Q9P1W9); assay: ProfilerPro Kinase Selectivity, PIM2
T18 construct: purchased Caliper LifeSciences
Description: as §1

P38A = molecular target: T19, P38A (Homo sapiens, UniProt Q16539); assay: ProfilerPro Kinase Selectivity, P38A
T19 construct: purchased Caliper LifeSciences
T19 sequence (Q16539 2-360 limits assumed): as the sequence (Q16539 2-360 T106M) above, with M105T counted along it
Description: as §1

EGFR T790M = molecular target: T20, EGFR T790M (Homo sapiens, UniProt P00533, T790M); assay: ProfilerPro Kinase Selectivity, EGFR T790M
T20 construct: purchased Caliper LifeSciences
T20 sequence (P00533 25-1210 T790M): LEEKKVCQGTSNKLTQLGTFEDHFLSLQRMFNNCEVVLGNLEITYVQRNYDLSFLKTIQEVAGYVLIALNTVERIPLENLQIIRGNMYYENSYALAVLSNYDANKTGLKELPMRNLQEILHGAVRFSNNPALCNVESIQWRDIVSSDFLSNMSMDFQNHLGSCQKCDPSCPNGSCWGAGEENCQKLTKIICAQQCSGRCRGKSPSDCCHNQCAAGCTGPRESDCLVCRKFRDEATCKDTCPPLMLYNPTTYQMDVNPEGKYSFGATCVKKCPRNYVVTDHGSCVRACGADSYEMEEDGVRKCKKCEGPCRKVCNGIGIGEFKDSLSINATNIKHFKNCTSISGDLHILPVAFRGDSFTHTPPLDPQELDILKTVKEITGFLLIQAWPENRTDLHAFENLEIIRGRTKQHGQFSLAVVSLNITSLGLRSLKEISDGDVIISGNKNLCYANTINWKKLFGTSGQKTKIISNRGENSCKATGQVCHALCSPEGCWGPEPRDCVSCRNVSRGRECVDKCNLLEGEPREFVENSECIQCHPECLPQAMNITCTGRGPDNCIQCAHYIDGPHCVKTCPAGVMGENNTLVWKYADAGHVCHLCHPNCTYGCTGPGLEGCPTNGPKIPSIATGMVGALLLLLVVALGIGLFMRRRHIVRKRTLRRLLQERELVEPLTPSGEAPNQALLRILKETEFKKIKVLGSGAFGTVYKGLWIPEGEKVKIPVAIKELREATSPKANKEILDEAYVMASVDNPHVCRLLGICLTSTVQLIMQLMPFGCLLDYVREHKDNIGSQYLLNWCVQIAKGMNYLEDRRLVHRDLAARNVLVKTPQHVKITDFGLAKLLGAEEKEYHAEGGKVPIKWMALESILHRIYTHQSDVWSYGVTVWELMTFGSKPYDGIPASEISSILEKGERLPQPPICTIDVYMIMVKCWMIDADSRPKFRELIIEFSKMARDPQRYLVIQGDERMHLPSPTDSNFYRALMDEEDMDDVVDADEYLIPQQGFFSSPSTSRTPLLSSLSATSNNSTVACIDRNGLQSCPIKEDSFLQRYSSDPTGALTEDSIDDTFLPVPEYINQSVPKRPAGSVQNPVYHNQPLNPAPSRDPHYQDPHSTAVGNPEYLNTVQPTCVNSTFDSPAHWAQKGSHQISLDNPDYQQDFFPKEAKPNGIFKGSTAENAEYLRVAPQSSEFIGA
Description: as §1

HIPK1 = molecular target: T21, HIPK1 (Homo sapiens, UniProt Q86Z02); assay: ProfilerPro Kinase Selectivity, HIPK1
T21 construct: purchased Caliper LifeSciences
Description: as §1

CK1E = molecular target: T22, CK1E (Homo sapiens, UniProt P49674); assay: ProfilerPro Kinase Selectivity, CK1E
T22 construct: purchased Caliper LifeSciences
T22 sequence (P49674 whole entry): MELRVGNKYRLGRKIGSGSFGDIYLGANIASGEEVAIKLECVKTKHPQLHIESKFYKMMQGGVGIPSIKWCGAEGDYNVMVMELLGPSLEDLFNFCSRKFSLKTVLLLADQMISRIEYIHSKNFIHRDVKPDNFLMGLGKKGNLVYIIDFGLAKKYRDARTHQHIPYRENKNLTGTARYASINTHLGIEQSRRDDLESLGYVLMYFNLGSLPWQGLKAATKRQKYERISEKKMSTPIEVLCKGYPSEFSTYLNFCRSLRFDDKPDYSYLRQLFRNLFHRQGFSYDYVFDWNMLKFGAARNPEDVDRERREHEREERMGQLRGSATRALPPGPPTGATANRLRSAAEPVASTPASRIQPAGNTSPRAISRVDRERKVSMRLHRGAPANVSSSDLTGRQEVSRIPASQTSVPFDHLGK
Description: as §1

BTK = molecular target: T23, BTK (Homo sapiens, UniProt Q06187); assay: ProfilerPro Kinase Selectivity, BTK
T23 construct: purchased Caliper LifeSciences
Description: as §1

FGFR4 = molecular target: T24, FGFR4 (Homo sapiens, UniProt P22455); assay: ProfilerPro Kinase Selectivity, FGFR4
T24 construct: purchased Caliper LifeSciences
Description: as §1

PASK = molecular target: T25, PASK (Homo sapiens, UniProt Q96RG2); assay: ProfilerPro Kinase Selectivity, PASK
T25 construct: purchased Caliper LifeSciences
Description: as §1

PIM-3 = molecular target: T26, PIM-3 (Homo sapiens, UniProt Q86V86); assay: ProfilerPro Kinase Selectivity, PIM-3
T26 construct: purchased Caliper LifeSciences
Description: as §1

ITK = molecular target: T27, ITK (Homo sapiens, UniProt Q08881); assay: ProfilerPro Kinase Selectivity, ITK
T27 construct: purchased Caliper LifeSciences
Description: as §1

NUAK1 = molecular target: T28, NUAK1 (Homo sapiens, UniProt O60285); assay: ProfilerPro Kinase Selectivity, NUAK1
T28 construct: purchased Caliper LifeSciences
T28 sequence (O60285 whole entry, species assumed): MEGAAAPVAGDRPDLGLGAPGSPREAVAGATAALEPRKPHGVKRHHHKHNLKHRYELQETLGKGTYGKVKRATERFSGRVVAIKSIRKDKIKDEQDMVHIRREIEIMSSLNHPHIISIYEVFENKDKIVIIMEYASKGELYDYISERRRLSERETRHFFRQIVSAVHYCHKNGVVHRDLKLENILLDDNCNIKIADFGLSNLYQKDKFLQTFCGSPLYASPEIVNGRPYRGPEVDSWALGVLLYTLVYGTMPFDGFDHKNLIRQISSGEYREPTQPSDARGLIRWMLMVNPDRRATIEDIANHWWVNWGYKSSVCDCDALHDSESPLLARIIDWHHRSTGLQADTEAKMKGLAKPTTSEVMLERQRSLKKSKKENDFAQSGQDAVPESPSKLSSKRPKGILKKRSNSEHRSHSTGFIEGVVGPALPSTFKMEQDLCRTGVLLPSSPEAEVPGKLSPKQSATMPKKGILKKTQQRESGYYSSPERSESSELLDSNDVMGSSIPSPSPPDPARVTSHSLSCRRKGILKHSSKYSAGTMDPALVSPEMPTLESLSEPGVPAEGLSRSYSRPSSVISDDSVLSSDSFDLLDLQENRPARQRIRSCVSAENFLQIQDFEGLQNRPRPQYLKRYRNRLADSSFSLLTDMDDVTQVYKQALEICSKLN
Description: as §1

RSK2 = molecular target: T29, RSK2 (Homo sapiens, UniProt P51812); assay: ProfilerPro Kinase Selectivity, RSK2
T29 construct: purchased Caliper LifeSciences
Description: as §1

BLK = molecular target: T30, BLK (Homo sapiens, UniProt P51451); assay: ProfilerPro Kinase Selectivity, BLK
T30 construct: purchased Caliper LifeSciences
Description: as §1

FGFR3 = molecular target: T31, FGFR3 (Homo sapiens, UniProt P22607); assay: ProfilerPro Kinase Selectivity, FGFR3
T31 construct: purchased Caliper LifeSciences
Description: as §1

SRM = molecular target: T32, SRM (Homo sapiens, UniProt Q9H3Y6); assay: ProfilerPro Kinase Selectivity, SRM
T32 construct: purchased Caliper LifeSciences
Description: as §1

ARG = molecular target: T33, ARG (Homo sapiens, UniProt P42684); assay: ProfilerPro Kinase Selectivity, ARG
T33 construct: purchased Caliper LifeSciences
Description: as §1

CK1G3 = molecular target: T34, CK1G3 (Homo sapiens, UniProt Q9Y6M4); assay: ProfilerPro Kinase Selectivity, CK1G3
T34 construct: purchased Caliper LifeSciences
Description: as §1

PKD2 = molecular target: T35, PKD2 (Homo sapiens, UniProt Q9BZL6); assay: ProfilerPro Kinase Selectivity, PKD2
T35 construct: purchased Caliper LifeSciences
T35 sequence (Q9BZL6 whole entry): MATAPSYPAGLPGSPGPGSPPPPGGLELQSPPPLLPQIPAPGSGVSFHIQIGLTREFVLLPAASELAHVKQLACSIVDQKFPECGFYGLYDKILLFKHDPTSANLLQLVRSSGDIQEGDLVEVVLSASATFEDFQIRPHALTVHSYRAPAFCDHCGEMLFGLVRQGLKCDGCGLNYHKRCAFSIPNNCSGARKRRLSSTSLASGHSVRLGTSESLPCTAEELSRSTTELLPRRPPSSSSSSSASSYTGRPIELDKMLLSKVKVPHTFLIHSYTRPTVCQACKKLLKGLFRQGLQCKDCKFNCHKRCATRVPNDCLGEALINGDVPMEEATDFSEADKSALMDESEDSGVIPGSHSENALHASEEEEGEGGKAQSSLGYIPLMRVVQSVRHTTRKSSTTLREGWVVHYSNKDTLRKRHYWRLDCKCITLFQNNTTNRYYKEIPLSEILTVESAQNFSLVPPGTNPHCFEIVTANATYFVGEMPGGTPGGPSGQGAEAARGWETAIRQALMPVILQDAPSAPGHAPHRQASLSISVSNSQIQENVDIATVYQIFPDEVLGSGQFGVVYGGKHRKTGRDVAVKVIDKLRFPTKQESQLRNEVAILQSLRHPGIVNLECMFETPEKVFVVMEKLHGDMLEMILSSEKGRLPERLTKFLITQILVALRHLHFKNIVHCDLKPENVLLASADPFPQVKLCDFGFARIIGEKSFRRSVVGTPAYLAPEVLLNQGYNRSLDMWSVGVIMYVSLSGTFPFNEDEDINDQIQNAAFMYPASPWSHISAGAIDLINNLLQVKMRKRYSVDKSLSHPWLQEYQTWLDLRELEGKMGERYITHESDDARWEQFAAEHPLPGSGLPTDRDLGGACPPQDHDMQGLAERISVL
Description: as §1

FLT-3 D835Y = molecular target: T36, FLT-3 D835Y (Homo sapiens, UniProt P36888, D835Y); assay: ProfilerPro Kinase Selectivity, FLT-3 D835Y
T36 construct: purchased Caliper LifeSciences
Description: as §1

LOK = molecular target: T37, LOK (Homo sapiens, UniProt O94804); assay: ProfilerPro Kinase Selectivity, LOK
T37 construct: purchased Caliper LifeSciences
Description: as §1

EPHA4 = molecular target: T38, EPHA4 (Homo sapiens, UniProt P54764); assay: ProfilerPro Kinase Selectivity, EPHA4
T38 construct: purchased Caliper LifeSciences
Description: as §1

Row | Structure (SMILES) | inhibition at 10 µM (DDR2) | inhibition at 10 µM (LYN) | inhibition at 10 µM (GSK3A) | inhibition at 10 µM (TYRO3) | inhibition at 10 µM (CAMK2G) | inhibition at 10 µM (ABL T315I) | inhibition at 10 µM (ABL1 Y253F) | inhibition at 10 µM (PAK4) | inhibition at 10 µM (CAMK1D) | inhibition at 10 µM (PRKCA) | inhibition at 10 µM (PKCI) | inhibition at 10 µM (P38B2) | inhibition at 10 µM (PDGFRA) | inhibition at 10 µM (GSK3B) | inhibition at 10 µM (MET M1250T) | inhibition at 10 µM (P38A/SAPK2A T106M) | inhibition at 10 µM (FGFR1 V561M) | inhibition at 10 µM (PIM2) | inhibition at 10 µM (P38A) | inhibition at 10 µM (EGFR T790M) | further results
1 | CC1(C)CC(=O)c2c(SC3CCCC3)sc(-c3cc[nH]n3)c2C1 [Example 7, 3-(Cyclopentylsulfanyl)-6,6-dimethyl-1-(1H-pyrazol-3-yl)-6,7-dihydro-2-benzothiophen-4(5H)-one] | -3.9% | 4% | -8.3% | 10.5% | 4.4% | 2.6% | 10.6% | -8.9% | 4% | 4.3% | -8.9% | -0.7% | -0.7% | 0.5% | -0.3% | 3.7% | 7.9% | -1.6% | 0.6% | -1.9% | inhibition at 10 µM (HIPK1): -1%; inhibition at 10 µM (CK1E): 5.1%; inhibition at 10 µM (BTK): 4.8%; inhibition at 10 µM (FGFR4): -0.1%; inhibition at 10 µM (PASK): -10.8%; inhibition at 10 µM (PIM-3): 8.2%; inhibition at 10 µM (ITK): -2.9%; inhibition at 10 µM (NUAK1): -4.2%; inhibition at 10 µM (RSK2): 3.5%; inhibition at 10 µM (BLK): 3.2%; inhibition at 10 µM (FGFR3): -2.6%; inhibition at 10 µM (SRM): 3%; inhibition at 10 µM (ARG): 8.6%; inhibition at 10 µM (CK1G3): 7.7%; inhibition at 10 µM (PKD2): -4.2%; inhibition at 10 µM (FLT-3 D835Y): 2.7%; inhibition at 10 µM (LOK): -32.6%; inhibition at 10 µM (EPHA4): -3.5%
2 | CSc1sc(-c2cc[nH]n2)c2c1C(=O)CCC2 [Example 1, 3-(Methylsulfanyl)-1-(1H-pyrazol-3-yl)-6,7-dihydro-2-benzothiophen-4(5H)-one] | 0.8% | 10.2% | 8.5% | 8.6% | 3.1% | 9.9% | 2.5% | 6.1% | -3.1% | 2.6% | -14% | -1.3% | 15.7% | 5.4% | 5.1% | 1.2% | 4.4% | 1.6% | -2.3% | 1.8% | inhibition at 10 µM (HIPK1): 15.9%; inhibition at 10 µM (CK1E): 10.9%; inhibition at 10 µM (BTK): 3.1%; inhibition at 10 µM (FGFR4): 5.9%; inhibition at 10 µM (PASK): 2.6%; inhibition at 10 µM (PIM-3): 23.7%; inhibition at 10 µM (ITK): 4.8%; inhibition at 10 µM (NUAK1): 44.2%; inhibition at 10 µM (RSK2): 5.5%; inhibition at 10 µM (BLK): 6.6%; inhibition at 10 µM (FGFR3): 9%; inhibition at 10 µM (SRM): 3.5%; inhibition at 10 µM (ARG): -6%; inhibition at 10 µM (CK1G3): 1.1%; inhibition at 10 µM (PKD2): -2.5%; inhibition at 10 µM (FLT-3 D835Y): 39.3%; inhibition at 10 µM (LOK): 7.5%; inhibition at 10 µM (EPHA4): -0.8%
